1 compound from ChEMBL document CHEMBL1158873, “Chemistry of Fijian Plants. 13. 1 Floribundal, a Nonglycosidic Bisiridoid, and Six Novel Fatty Esters of -Amyrin from Scaevola floribunda” (J Nat Prod, 1997) can be followed below.

In this data set the test system is Artemia. As to the kind of experiment: Toxicity against brine shrimp. Format: organism-based. The note with it: in vivo.

With `COC(=O)C[C@@H]1C(C(=O)O[C@H]2C[C@@H]3C(C(=O)OC)=CO[C@@H](O)[C@@H]3[C@H]2C)=CO[C@@H](C)[C@H]1C=O` [FLORIBUNDAL], the Activity result is reported as “Non-toxic”.
